Results on ten compounds are retold here after ChEMBL document CHEMBL3217726, “Asymmetric synthesis of potent chroman-based Rho kinase (ROCK-II) inhibitors” (Medchemcomm, 2011).

Test [1] concerns the target Rho-associated protein kinase 2 (Homo sapiens, UniProt O75116). Nature of the test: Inhibition of ROCK2 (unknown origin) after 4 hrs by HTRF assay.
Test [2] has as its target Serine/threonine-protein kinase MRCK alpha (Homo sapiens, UniProt Q5VT25). Nature of the test: Inhibition of MRCK-alpha (unknown origin) using LCB-AKRRRLSSLRA-NH2 as substrate after 75 mins by luminescence assay.
A short description of test [3]: Inhibition of PKA (unknown origin) after 70 mins by luminescence assay. Also noted: species or system Homo sapiens.
The target of test [4] is Rho-associated protein kinase 2 (Rattus norvegicus, UniProt Q62868). Nature of the test: Inhibition of ROCK2-mediated myosin light chain bis-phosphorylation in rat A7r5 cells after 1 hr by TO-PRO-3 iodide staining-based assay. The class given is cell-based.
Chain of Rho-associated protein kinase 2 (Rattus norvegicus, UniProt Q62868) (Q62868 whole entry): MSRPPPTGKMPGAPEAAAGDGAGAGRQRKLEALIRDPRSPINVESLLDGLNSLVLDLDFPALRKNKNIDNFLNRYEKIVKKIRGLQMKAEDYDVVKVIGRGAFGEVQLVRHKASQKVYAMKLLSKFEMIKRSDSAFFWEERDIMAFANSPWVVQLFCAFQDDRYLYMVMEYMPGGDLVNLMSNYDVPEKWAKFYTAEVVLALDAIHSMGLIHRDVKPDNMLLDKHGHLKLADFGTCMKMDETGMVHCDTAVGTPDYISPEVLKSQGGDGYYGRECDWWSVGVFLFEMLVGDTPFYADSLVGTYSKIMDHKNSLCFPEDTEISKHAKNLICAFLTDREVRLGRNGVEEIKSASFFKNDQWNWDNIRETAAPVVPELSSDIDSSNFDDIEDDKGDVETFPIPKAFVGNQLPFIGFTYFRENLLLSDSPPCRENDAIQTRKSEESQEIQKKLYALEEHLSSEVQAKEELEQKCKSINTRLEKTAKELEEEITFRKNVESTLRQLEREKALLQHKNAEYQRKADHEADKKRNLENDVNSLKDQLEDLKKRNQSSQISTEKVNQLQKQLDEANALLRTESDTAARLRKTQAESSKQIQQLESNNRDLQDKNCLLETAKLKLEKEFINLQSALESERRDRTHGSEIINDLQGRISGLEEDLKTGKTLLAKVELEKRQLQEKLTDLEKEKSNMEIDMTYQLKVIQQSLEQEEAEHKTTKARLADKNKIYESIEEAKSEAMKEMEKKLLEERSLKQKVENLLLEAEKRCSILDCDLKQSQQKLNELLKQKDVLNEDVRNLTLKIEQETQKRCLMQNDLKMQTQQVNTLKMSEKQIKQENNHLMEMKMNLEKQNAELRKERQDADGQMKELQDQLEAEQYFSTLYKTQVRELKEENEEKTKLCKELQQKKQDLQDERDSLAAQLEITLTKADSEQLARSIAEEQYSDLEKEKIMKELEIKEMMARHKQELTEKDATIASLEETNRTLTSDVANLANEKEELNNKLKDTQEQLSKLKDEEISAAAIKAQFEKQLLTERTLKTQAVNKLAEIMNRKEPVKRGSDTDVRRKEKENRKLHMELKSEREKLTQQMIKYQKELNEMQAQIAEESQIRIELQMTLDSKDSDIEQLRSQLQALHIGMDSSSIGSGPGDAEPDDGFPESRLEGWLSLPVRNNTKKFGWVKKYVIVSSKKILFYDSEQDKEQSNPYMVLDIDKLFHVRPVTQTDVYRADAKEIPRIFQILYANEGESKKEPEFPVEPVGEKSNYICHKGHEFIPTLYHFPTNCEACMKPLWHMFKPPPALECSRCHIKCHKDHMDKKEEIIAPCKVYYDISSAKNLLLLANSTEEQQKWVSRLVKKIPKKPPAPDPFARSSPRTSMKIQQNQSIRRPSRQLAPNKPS
Test [5] is filed under the species Homo sapiens. Nature of the test: Selectivity ratio of IC50 for PKA (unknown origin) to IC50 for ROCK2 (unknown origin).
The species named for test [6] is Homo sapiens. As to the kind of experiment: Selectivity ratio of IC50 for MRCK-alpha (unknown origin) to IC50 for ROCK2 (unknown origin).

Chain of Serine/threonine-protein kinase MRCK alpha (Q5VT25 whole entry): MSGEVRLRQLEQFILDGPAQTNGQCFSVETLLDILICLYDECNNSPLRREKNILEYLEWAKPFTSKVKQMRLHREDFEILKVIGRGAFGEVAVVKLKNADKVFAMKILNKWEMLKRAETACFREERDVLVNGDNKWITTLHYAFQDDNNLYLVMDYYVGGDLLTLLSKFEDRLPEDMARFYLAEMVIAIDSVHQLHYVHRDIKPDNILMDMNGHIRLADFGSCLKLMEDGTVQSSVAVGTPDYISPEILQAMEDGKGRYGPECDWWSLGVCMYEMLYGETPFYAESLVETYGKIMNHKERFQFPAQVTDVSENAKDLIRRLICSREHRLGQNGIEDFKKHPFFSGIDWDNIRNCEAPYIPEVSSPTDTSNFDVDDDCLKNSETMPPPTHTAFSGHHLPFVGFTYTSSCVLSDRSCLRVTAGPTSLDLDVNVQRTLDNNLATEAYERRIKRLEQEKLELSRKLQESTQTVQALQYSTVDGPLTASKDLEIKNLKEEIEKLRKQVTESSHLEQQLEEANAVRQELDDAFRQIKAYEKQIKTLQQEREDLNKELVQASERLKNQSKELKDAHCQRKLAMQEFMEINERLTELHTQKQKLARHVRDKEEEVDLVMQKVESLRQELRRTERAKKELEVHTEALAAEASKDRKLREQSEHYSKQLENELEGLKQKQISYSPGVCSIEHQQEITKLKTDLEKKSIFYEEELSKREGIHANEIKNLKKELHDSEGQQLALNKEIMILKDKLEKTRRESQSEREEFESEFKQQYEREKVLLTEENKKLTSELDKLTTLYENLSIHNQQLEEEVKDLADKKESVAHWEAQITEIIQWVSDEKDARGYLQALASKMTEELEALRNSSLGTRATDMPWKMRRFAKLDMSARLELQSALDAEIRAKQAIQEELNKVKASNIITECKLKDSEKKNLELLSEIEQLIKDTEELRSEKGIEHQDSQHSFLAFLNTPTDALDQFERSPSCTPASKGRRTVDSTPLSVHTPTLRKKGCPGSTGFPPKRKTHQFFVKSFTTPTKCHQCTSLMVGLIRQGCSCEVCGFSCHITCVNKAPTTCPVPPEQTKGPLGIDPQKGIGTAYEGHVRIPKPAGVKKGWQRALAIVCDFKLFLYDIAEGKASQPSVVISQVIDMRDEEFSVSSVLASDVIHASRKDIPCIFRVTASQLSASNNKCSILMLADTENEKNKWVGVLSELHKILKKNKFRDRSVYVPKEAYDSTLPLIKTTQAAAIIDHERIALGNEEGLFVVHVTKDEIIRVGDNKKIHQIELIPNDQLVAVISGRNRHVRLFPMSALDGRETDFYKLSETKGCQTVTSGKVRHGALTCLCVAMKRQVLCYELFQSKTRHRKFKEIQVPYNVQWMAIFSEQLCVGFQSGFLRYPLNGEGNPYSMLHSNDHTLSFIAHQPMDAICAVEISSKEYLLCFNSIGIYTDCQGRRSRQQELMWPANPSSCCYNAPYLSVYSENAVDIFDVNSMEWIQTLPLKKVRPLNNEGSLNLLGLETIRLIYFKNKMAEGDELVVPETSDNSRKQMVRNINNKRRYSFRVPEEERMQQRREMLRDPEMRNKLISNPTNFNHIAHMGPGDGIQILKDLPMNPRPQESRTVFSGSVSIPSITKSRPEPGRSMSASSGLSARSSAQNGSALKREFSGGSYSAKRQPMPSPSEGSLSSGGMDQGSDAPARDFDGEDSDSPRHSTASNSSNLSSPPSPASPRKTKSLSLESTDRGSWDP
Chain of Rho-associated protein kinase 2 (Homo sapiens, UniProt O75116) (O75116 whole entry): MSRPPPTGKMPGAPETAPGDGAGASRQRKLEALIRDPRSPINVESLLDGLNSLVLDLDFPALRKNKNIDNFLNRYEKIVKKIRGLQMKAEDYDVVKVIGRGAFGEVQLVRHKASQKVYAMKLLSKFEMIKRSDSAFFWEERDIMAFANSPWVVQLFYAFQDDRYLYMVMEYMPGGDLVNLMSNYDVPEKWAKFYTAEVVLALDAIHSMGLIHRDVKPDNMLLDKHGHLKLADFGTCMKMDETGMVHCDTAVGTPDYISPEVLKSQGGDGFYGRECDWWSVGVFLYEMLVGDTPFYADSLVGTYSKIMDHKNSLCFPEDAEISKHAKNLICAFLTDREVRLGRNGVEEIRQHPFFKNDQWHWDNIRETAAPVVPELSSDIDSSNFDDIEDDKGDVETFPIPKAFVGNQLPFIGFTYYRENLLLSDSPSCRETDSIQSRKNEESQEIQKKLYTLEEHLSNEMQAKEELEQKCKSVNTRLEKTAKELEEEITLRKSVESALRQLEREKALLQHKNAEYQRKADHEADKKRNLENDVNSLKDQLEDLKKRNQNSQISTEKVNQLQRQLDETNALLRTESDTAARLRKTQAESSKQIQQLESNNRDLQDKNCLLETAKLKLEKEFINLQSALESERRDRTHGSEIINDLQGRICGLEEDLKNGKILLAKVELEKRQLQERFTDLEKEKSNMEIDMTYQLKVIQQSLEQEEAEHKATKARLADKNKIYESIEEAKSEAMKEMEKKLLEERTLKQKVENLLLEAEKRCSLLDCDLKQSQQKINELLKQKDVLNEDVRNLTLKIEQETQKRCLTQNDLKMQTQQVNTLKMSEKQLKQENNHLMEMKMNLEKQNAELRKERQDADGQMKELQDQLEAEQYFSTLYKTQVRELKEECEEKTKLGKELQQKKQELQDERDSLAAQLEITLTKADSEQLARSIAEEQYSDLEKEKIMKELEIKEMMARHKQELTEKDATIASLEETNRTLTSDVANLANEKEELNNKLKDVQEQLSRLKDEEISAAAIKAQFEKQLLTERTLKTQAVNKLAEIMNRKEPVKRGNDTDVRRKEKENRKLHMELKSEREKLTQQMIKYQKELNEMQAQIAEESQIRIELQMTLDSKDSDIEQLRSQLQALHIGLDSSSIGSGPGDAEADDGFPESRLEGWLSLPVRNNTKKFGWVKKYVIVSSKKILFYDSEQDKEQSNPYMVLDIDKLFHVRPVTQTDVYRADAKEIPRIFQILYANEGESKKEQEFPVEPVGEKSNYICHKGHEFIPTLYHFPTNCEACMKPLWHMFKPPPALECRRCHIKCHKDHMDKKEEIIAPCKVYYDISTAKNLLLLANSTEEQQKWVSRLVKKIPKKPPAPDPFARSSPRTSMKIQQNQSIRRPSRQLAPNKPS

In general, IC50 refers to the point on the concentration scale where inhibition reaches its midpoint. A low value points to greater potency in that assay. Regarding `COc1ccc2c(c1)C[C@H](C(=O)Nc1ccc(-c3cn[nH]c3)cc1O[C@H]1CCN(C)C1)CO2`, the IC50 in test [1] is below 1 nM; in test [2], 294 nM; in test [3], 7380 nM; in test [4], below 4 nM.
The matching figures for `COc1ccc2c(c1)C[C@@H](C(=O)Nc1ccc(-c3cn[nH]c3)cc1OCCN1CCCC1)CO2`: 30 nM, above 20000 nM, above 20000 nM and 411 nM.
`COc1ccc2c(c1)C[C@H](C(=O)Nc1ccc(-c3cn[nH]c3)cc1OCCN1CCCC1)CO2`: the IC50 was below 1 nM in test [1], 1270 nM in test [2], 9600 nM in test [3] and below 4 nM in test [4]. For the same compound, the Ratio IC50 was above 9500 in test [5] and above 1200 in test [6].
`COc1ccc2c(c1)C[C@H](C(=O)Nc1ccc(-c3cn[nH]c3)cc1OCCN(C)C)CO2`: the IC50 in test [3] was 1740 nM; in test [4], below 4 nM.
With `COc1ccc2c(c1)C[C@@H](C(=O)Nc1ccc(-c3cn[nH]c3)cc1O[C@@H]1CCN(C)C1)CO2`, the IC50 in test [1] is 14 nM; in test [2], above 20000 nM; in test [3] it was above 20000 nM; in test [4] it was 32 nM.
As to `COc1ccc2c(c1)C[C@@H](C(=O)Nc1ccc(-c3cn[nH]c3)cc1OCCCO)CO2`, the IC50 is 35 nM in test [1], above 20000 nM in test [3] and 519 nM in test [4].
As for `COc1ccc2c(c1)C[C@H](C(=O)Nc1ccc(-c3cn[nH]c3)cc1O[C@@H]1CCN(C)C1)CO2`, the IC50 in test [1] is below 1 nM; in test [2], 261 nM; in test [3], 3460 nM; in test [4], below 4 nM.
As to `COc1ccc2c(c1)C[C@@H](C(=O)Nc1ccc(-c3cn[nH]c3)cc1OCCN(C)C)CO2`, the IC50 in test [3] is above 20000 nM; in test [4], 43 nM.
Take `COc1ccc2c(c1)C[C@H](C(=O)Nc1ccc(-c3cn[nH]c3)cc1OCCCO)CO2`: the IC50 was below 1 nM in test [1], 74 nM in test [2], 652 nM in test [3] and below 4 nM in test [4].
Consider `COc1ccc2c(c1)C[C@@H](C(=O)Nc1ccc(-c3cn[nH]c3)cc1O[C@H]1CCN(C)C1)CO2`, for which the results for the IC50 in test [1], in test [3] and in test [4] were 34 nM, above 20000 nM and 900 nM, respectively.
